{"source": "ChEMBL document CHEMBL2057199", "about": "“Development of novel M1 antagonist scaffolds through the continued optimization of the MLPCN probe ML012” (Bioorg Med Chem Lett, 2012)", "key": {"[1]": {"tested_on": "Brain", "assay": "Fraction unbound in rat brain homogenate", "assay_type": "ADME, tissue-based"}, "[2]": {"molecular_target": "Muscarinic acetylcholine receptor M3 (Homo sapiens, UniProt P20309)", "sequence (P20309 whole entry)": "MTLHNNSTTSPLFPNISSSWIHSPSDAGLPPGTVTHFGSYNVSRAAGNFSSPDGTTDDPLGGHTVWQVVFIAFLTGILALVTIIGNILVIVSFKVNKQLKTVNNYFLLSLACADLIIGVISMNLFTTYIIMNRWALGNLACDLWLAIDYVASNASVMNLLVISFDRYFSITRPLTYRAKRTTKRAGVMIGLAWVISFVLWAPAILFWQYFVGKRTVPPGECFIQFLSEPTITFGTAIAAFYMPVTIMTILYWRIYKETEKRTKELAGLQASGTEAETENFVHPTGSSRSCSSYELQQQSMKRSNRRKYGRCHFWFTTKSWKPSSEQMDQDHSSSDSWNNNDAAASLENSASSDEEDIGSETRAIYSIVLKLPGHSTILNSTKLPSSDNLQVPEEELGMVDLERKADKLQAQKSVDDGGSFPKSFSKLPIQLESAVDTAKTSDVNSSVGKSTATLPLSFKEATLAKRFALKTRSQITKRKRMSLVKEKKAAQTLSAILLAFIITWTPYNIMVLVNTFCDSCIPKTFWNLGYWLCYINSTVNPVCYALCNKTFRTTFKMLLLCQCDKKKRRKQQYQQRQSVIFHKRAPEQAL", "assay": "Antagonist activity at human muscarinic M3 receptor assessed as inhibition of acetylcholine-induced calcium mobilization", "assay_type": "functional"}, "[3]": {"molecular_target": "T1, Muscarinic acetylcholine receptor M1 (Homo sapiens) (UniProt P11229)", "T1 sequence (whole entry)": "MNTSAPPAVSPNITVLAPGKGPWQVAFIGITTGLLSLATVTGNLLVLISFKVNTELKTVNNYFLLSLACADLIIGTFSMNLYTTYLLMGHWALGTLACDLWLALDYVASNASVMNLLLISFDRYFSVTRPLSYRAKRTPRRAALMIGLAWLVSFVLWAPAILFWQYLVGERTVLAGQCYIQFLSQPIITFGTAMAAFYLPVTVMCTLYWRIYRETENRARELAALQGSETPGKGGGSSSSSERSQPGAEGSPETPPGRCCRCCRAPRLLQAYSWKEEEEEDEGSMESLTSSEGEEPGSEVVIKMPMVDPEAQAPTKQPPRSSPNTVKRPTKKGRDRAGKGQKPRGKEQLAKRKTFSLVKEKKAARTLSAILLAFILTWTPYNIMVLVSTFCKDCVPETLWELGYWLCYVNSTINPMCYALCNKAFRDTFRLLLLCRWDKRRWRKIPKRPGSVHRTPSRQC", "assay": "Antagonist activity at human muscarinic M1 receptor assessed as rightward shift in acetylcholine concentration response curve", "assay_type": "functional"}, "[4]": {"molecular_target": "T1, Muscarinic acetylcholine receptor M1 (Homo sapiens)", "assay": "Antagonist activity at human muscarinic M1 receptor expressed in CHO cells assessed as inhibition of acetylcholine-induced calcium mobilization at 30 uM measured after 15 mins by fluorescence analysis", "assay_type": "functional, cell-based", "design": "scale not given: the % may be the effect or the level left"}, "[5]": {"molecular_target": "T2, Muscarinic acetylcholine receptor M4 (Homo sapiens, UniProt P08173)", "T2 sequence (P08173 whole entry)": "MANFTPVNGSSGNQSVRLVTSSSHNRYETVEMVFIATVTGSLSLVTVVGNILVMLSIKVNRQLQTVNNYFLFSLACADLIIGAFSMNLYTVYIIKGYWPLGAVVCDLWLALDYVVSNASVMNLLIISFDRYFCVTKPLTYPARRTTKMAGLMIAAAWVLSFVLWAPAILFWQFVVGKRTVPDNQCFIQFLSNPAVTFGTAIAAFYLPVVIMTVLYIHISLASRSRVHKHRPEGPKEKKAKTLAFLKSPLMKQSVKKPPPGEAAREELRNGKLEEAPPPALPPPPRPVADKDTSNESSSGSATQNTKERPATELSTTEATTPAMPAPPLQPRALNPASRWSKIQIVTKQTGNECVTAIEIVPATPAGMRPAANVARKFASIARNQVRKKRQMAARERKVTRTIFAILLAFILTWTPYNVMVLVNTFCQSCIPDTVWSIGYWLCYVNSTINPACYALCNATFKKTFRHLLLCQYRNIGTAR", "assay": "Antagonist activity at human muscarinic M4 receptor assessed as inhibition of acetylcholine-induced calcium mobilization", "assay_type": "functional"}, "[6]": {"molecular_target": "T1, Muscarinic acetylcholine receptor M1 (Homo sapiens)", "assay": "(§1) Antagonist activity at human muscarinic M1 receptor expressed in CHO cells assessed as inhibition of acetylcholine-induced calcium mobilization by fluorescence analysis", "assay_type": "functional, cell-based"}, "[7]": {"molecular_target": "T3, Muscarinic acetylcholine receptor M1 (Homo sapiens, UniProt P11229)", "T3 sequence (P11229 whole entry)": "T1 sequence (whole entry)", "assay": "as §1", "assay_type": "functional, cell-based", "conditions": "read-out: IC50"}, "[8]": {"molecular_target": "Cytochrome P450 2D6 (Homo sapiens, UniProt P10635)", "sequence (P10635 whole entry)": "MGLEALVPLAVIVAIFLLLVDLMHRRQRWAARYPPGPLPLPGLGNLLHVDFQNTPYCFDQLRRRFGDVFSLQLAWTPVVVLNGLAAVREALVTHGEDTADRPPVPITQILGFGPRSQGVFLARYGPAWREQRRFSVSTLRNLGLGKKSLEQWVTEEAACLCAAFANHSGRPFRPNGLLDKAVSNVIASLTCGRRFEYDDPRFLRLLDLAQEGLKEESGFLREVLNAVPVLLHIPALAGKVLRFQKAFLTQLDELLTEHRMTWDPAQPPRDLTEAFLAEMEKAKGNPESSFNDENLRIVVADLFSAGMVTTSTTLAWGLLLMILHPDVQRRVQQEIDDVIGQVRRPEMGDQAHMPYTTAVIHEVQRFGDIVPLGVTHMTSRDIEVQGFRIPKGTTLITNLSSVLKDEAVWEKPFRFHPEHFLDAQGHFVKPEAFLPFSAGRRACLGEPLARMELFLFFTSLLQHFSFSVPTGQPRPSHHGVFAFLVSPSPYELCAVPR", "assay": "Inhibition of CPY2D6"}, "[9]": {"tested_on": "Plasma", "assay": "Fraction unbound in rat plasma", "assay_type": "ADME, cell-free"}, "[10]": {"molecular_target": "T4, Muscarinic acetylcholine receptor M2 (Homo sapiens, UniProt P08172)", "T4 sequence (P08172 whole entry)": "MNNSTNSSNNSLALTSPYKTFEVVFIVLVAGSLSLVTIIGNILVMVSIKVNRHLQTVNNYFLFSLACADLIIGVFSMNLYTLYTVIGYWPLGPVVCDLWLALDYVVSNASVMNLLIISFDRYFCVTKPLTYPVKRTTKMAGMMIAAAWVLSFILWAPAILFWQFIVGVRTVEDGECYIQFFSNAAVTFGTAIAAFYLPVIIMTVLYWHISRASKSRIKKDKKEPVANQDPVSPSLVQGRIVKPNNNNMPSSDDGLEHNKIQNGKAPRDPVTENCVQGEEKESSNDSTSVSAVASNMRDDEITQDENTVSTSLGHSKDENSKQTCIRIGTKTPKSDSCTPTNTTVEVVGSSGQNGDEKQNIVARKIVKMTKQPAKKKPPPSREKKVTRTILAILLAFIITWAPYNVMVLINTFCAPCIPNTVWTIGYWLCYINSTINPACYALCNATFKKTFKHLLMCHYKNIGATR", "assay": "Antagonist activity at human muscarinic M2 receptor assessed as inhibition of acetylcholine-induced calcium mobilization", "assay_type": "functional"}, "[11]": {"molecular_target": "T5, Cytochrome P450 1A2 (Homo sapiens, UniProt P05177)", "T5 sequence (P05177 whole entry)": "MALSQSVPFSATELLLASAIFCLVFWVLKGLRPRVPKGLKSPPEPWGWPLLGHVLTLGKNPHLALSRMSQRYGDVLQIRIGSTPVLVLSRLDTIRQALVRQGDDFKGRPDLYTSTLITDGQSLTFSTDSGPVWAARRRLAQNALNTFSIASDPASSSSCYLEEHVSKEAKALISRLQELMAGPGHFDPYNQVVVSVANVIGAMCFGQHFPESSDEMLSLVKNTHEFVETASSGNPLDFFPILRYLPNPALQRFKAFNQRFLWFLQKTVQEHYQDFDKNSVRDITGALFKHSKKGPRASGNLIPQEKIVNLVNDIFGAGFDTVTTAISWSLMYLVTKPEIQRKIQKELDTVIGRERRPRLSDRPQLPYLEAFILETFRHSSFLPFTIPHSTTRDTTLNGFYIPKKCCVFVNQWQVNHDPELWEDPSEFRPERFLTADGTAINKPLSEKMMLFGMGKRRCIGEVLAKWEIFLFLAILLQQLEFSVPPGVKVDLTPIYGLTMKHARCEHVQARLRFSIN", "assay": "Inhibition of CPY1A2"}, "[12]": {"tested_on": "Plasma", "assay": "Fraction unbound in human plasma", "assay_type": "ADME, cell-free"}, "[13]": {"assay": "Plasma clearance in iv dosed rat", "assay_type": "ADME, organism-based"}, "[14]": {"molecular_target": "T6, Muscarinic acetylcholine receptor M5 (Homo sapiens, UniProt P08912)", "T6 sequence (P08912 whole entry)": "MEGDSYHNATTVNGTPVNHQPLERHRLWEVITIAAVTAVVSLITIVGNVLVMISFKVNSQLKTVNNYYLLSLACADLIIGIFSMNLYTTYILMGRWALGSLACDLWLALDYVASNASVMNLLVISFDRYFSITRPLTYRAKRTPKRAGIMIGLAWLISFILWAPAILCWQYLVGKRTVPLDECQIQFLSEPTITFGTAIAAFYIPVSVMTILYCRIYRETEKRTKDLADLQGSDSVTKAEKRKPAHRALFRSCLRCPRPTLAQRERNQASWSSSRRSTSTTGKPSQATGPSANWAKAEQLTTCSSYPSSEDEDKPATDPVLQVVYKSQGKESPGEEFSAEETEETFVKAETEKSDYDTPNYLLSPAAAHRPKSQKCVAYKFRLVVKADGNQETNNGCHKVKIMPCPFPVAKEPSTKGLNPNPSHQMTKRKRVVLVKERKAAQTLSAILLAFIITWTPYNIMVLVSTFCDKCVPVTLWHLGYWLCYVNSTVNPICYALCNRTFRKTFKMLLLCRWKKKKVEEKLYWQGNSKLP", "assay": "Antagonist activity at human muscarinic M5 receptor assessed as inhibition of acetylcholine-induced calcium mobilization", "assay_type": "functional"}, "[15]": {"molecular_target": "T1, Muscarinic acetylcholine receptor M1 (Homo sapiens)", "assay": "Displacement of [3H]NMS from human muscarinic M1 receptor"}, "[16]": {"molecular_target": "Cytochrome P450 2C9 (Homo sapiens, UniProt P11712)", "sequence (P11712 whole entry)": "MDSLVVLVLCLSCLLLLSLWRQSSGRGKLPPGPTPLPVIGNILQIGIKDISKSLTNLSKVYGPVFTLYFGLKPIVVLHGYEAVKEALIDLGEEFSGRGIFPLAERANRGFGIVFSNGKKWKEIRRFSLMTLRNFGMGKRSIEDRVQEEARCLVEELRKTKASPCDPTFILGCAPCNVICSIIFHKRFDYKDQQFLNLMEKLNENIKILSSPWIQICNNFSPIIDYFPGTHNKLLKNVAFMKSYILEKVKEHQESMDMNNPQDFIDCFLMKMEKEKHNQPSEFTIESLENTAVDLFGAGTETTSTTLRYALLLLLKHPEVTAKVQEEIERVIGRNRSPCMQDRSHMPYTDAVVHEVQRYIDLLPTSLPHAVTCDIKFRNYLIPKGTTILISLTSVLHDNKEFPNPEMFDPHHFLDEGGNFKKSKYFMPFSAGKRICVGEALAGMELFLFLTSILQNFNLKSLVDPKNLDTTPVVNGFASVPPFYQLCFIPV", "assay": "Inhibition of CPY2C9"}, "[17]": {"molecular_target": "Cytochrome P450 3A4 (Homo sapiens, UniProt P08684)", "sequence (P08684 whole entry)": "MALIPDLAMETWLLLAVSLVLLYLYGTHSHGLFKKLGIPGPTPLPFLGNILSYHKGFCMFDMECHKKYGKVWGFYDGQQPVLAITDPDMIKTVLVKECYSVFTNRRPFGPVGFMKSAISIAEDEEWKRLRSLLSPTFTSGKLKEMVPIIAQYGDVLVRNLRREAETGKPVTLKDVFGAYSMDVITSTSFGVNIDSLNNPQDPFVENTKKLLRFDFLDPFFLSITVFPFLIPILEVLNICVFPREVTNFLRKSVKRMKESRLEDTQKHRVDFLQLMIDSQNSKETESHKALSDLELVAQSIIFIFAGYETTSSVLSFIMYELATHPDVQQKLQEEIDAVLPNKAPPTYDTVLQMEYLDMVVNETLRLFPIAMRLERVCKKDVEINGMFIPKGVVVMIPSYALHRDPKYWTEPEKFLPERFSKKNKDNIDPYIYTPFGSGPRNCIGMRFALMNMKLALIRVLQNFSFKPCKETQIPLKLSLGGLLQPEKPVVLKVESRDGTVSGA", "assay": "Inhibition of CPY3A4"}}, "note": "The source made the active and inactive calls. No cut-off for these calls is given here.", "data": [{"smiles": "O=C(C1CN(S(=O)(=O)c2cccc3cnccc23)C1)N1CC2CN(c3ccncc3)CC2C1", "note": "(configuration not stated)", "values": [{"measurement": "Fu", "setting": "[1]", "value": 0.08, "unit": "%"}, {"measurement": "IC50", "setting": "[2]", "value": "> 10", "unit": "µM"}, {"measurement": "Activity", "setting": "[3]", "value": "Active"}, {"measurement": "Activity", "setting": "[4]", "value": 2.8, "unit": "%"}, {"measurement": "IC50", "setting": "[5]", "value": "> 10", "unit": "µM"}, {"measurement": "inhibition", "setting": "[6]", "value": "Dose-dependent effect"}, {"measurement": "IC50", "setting": "[7]", "value": 0.23, "unit": "µM"}, {"measurement": "IC50", "setting": "[8]", "value": "< 2.5", "unit": "µM"}, {"measurement": "Fu", "setting": "[9]", "value": 0.6, "unit": "%"}, {"measurement": "IC50", "setting": "[10]", "value": "> 10", "unit": "µM"}, {"measurement": "IC50", "setting": "[11]", "value": "> 30", "unit": "µM"}, {"measurement": "Fu", "setting": "[12]", "value": 0.9, "unit": "%"}, {"measurement": "clearance", "setting": "[13]", "value": 68.6, "unit": "mL/min/kg"}, {"measurement": "IC50", "setting": "[14]", "value": "> 10", "unit": "µM"}, {"measurement": "Activity", "setting": "[15]", "value": "Active"}, {"measurement": "IC50", "setting": "[16]", "value": "< 2.5", "unit": "µM"}, {"measurement": "IC50", "setting": "[17]", "value": "< 2.5", "unit": "µM"}]}]}
